Reference: patent publication US20260209260A1, “VECTORIZED NHC IRIDIUM(III) COMPLEXES AND USE THEREOF IN PHOTODYNAMIC THERAPY AND/OR DIAGNOSTIC” (CENTRE NATIONAL DE LA RECHERCHE SCIENTIFIQUE, priority 2022, published 2026)
“And” between values parts separate entries of the source, which are not always exact repeats. Identical values can stand only once. Like-named read-outs stand apart in the source and are kept apart here.

Assays:
[1] = test system: NIH-3T3 fibroblast cells (non-tumor); assay: Cell viability assay (MTT), dark and blue light; type: cell-based, Murine; details: for Photosensitizing index (PI): NIH-3T3, dark vs blue light
Method: (§1) Cells were grown in humidified incubators at 37° C. in 5% CO2. Murine MC3T3 osteoblast and NIH-3T3 fibroblast cells-used as non-tumor cell models-were cultured in a-MEM medium and DMEM medium supplemented with 10% fetal bovine serum (FBS) and 1% Penicillin/Streptomycin (P/S) antibiotics, respectively. Human T24 bladder, MGHU3 bladder, Scaber bladder, A549 lung, MCF7 breast, MiaPaCa2 pancreas cancer cells were cultured in DMEM medium supplemented with 10% FBS and 1% P/S antibiotics. […] Human Hela cervix and HepG2 liver cancer cells were cultured EMEM medium supplemented with 10% FBS and 1% P/S antibiotics.
(§2) MTT reagent (3-(4,5-dimethylthiazol-2-yl)-2,5-diphenyltetrazolium bromide) was used to determine cell death as originally described by Mosmann. Briefly, cells were seeded from 5,000 to 10,000 cells/well in 24-well plates (1 mL) depending on the cell type and allowed to attach overnight. The complexes were prepared in DMSO. The concentration of the complexes was calculated based on the elemental composition of the complexes determined by the elemental analyses. All cell viability experiments were carried out with a fixed concentration of 0.1% (v/v) DMSO. After 72 h of treatment, cells were incubated at 37° C. and 5% CO2 with 25 μL of MTT solution (5 mg/ml; Sigma-Aldrich) in 24-well plates for 3 to 4 h. After solubilization with 500 μL of DMSO, formazan was quantified spectrophotometrically with a microplate reader at 570 nm absorbance (ClarioSTAR, BMG LabTech). […] All the results were calculated from data obtained in at least three independent experiments performed in triplicate.
(§3) Two sets of experiments were conducted in parallel for each complex to be studied:
(§4) 1. The cells were incubated with the different complexes (in the dark) for 72 h.
(§5) 2. The cells were incubated for 8 h with the different complexes (in the dark), then irradiated for 10 min, followed by an incubation in the dark up to 72 h.

[2] = Lipophilicity: octanol-water partition coefficient, shake-flask method
Method: The octanol-water partition coefficients (P) of all the complexes were determined using a shake-flask method^8. Water (100 mL, distilled after milli-Q purification) and n-octanol (100 mL, Sigma Aldrich, ACS spectrophotometric grade, ≥99%) were shaken together for 24 h to allow saturation of both phases. Stock solutions of the compounds ([…]) were prepared in the aqueous phase. Aliquots (2 mL) of each of these stock solutions were then added to an equal volume of the n-octanol phase. The resultant biphasic solution was mixed for 15 min and then centrifuged (3000 tr/min, 5 min) to separate the phases. The concentrations of the complex in the organic and aqueous phases were then determined using UV absorbance spectroscopy (260 nm). The blank is the water saturated with n-octanol. Log P was defined as logarithm of the ratio of the concentrations of the complex in the organic and aqueous phases (values reported are the means of at least three separated determinations).
The Log P values have been determined by a classical shake-flask method.

[3] = Luminescence emission spectra and quantum yield; type: physicochemical; details: for ΦP emission phosphorescence quantum yield: room temperature, reference POPOP in hexane or rhodamine B in ethanol
Method: Fluorescence and phosphorescence emission spectra were obtained with a HORIBA JOBIN YVON, fluromax-4 and spectrofluorometer.
Luminescence quantum yields were measured according to the method of Demas and Crosby, on solution samples at RT. The quantum yield is defined as: […]
Where ΦP is the quantum yield of the sample, ΦR is the know quantum yield of the reference standard. […].
The luminescence spectra of vectorized iridium(III) complexes were determined in CH2Cl2 at room temperature (Table 3).

[4] = Emission lifetime measurement; type: physicochemical
Method: Fluorescence lifetime measurements were performed by an Edinburgh FLS920 spectrofluorimeter equipped with a TCC900 card for data acquisition in time-correlated single-photon counting experiments (0.5 ns time resolution) with a D2 lamp and an LDH—P-C-405 pulsed diode laser. The estimated experimental error is 2 nm on the band maximum (5% on the lifetime, 10% on the fluorescence quantum yield).
The emission lifetimes of biotin-vectorized complexes (I-a) to (I-l) range from 138 ns to 411 ns, among them, the lifetime of biotin-vectorized complexes (I-c), (I-e), (I-k) are 411, 224, and 322 ns respectively. The emission lifetimes of FTS-vectorized complexes (II-a) to (II-l) range from 167 ns to 486 ns, among them, the lifetime of FTS-vectorized complexes (II-c) and (II-k) are 319 and 486 ns respectively. The emission lifetimes of PSMA-vectorized complexes (III-a) to (III-l) are in the range of 159-649 ns, among them, the lifetime of complexes (III-a) and (III-k) were 248 and 649 ns, respectively. The emission lifetimes of Fc-vectorized complexes (IV-a) to (IV-l) are in the range of 178-228 ns.

T24 bladder cancer cells = assay: Cell viability assay (MTT), dark and blue light; type: cell-based, Human
Method: as §1, §2, §3, §4, §5

[5] = UV/Vis absorption spectra; type: physicochemical; details: room temperature; for maximum absorption, lowest-lying bands in the visible region over 360 nm: CH2Cl2 or CH2Cl2/MeOH (1:1); for λmax (nm) ε (M^−1 · cm^−1): air-saturated CH2Cl2 or CH2Cl2/MeOH (1:1), 50 μM, ε in brackets, sh = shoulder
Method: UV/Vis absorption spectra were recorded at RT on solutions contained in quartz cuvettes (optical pathlength 1 cm, Hellma®) with a PerkinElmer® UV/VIS/NIR spectrophotometer Lambda 950 and a PerkinElmer® detector UV/VIS/NIR Accessory 2D Detector Module.

[6] = test system: PC-3 prostate cancer cells (PSMA-negative); assay: Cell viability assay (MTT), dark and blue light; type: cell-based, Human; details: for GI50: read-out: GI50; for Photosensitizing index (PI): PC3, dark vs blue light
Method: Cells were grown in humidified incubators at 37° C. in 5% CO2. Murine MC3T3 osteoblast and NIH-3T3 fibroblast cells-used as non-tumor cell models-were cultured in a-MEM medium and DMEM medium supplemented with 10% fetal bovine serum (FBS) and 1% Penicillin/Streptomycin (P/S) antibiotics, respectively. Human T24 bladder, MGHU3 bladder, Scaber bladder, A549 lung, MCF7 breast, MiaPaCa2 pancreas cancer cells were cultured in DMEM medium supplemented with 10% FBS and 1% P/S antibiotics. Human ASPC-1 pancreas, PC-3 prostate, DU-145 prostate, C4-2B prostate and 22rV1 prostate cancer cells were cultured in RPMI medium supplemented with 10% FBS and 1% P/S antibiotics. Human Hela cervix and HepG2 liver cancer cells were cultured EMEM medium supplemented with 10% FBS and 1% P/S antibiotics.
as §2
Irradiation was conducted using an in-house device, a series of blue light LEDs selected according to the absorption spectra of the compounds at 458 nm wavelength with an emitted power of 9.6 Watts. The light fluence was measured at 458 nm with an optical power meter Thorlabs PM100A at different distances between the cell layer and the light source (5 and 10 cm).
as §3, §4, §5

[7] = n-octanol/water, shake-flask, mean of at least three determinations
[8] = NIH-3T3, blue light, read-out: GI50

Row | SMILES | Log P [2, 7] | ΦP emission phosphorescence quantum yield [3] | τ1 emission lifetime [4] | maximum absorption, lowest-lying bands in the visible region over 360 nm [5] | λmax (nm) ε (M^−1 · cm^−1) [5] | GI50 [1, 8] | Photosensitizing index (PI) [1] | GI50 ([1]; NIH-3T3, dark, read-out: GI50) | SI (vs NIH-3T3) ([6]; PC3, blue light) | GI50 ([6]; PC3, blue light) | SI (vs NIH-3T3) ([6]; PC3, dark) | Photosensitizing index (PI) [6] | Log P [2] | GI50 ([6]; PC3, dark) | other results
1 | COC(=O)c1cccc2[c]1[Ir-3]13([c]4c(C(=O)OC)cccc4-c4cccc[n+]41)([c]1n(CCCNC(=O)CCCC[C@@H]4SC[C@@H]5NC(=O)N[C@@H]54)cc[n+]1-c1cccc[n+]13)[n+]1ccccc1-2.F[P-](F)(F)(F)(F)F [I-d] | −0.10 ± 0.01 | 0.7% | 184 ns | around 370 nm | 373 (4260) nm (M^−1 · cm^−1) |  |  |  |  |  |  |  |  |  | GI50 ([1]; 8 h in the dark, blue light 458 nm 10 min, then dark up to 72 h, read-out: GI50 NIH-3T3 Blue): > 100 µM; GI50 ([1]; in the dark, 72 h, read-out: GI50 NIH-3T3 Dark): > 100 µM; GI50 (T24 bladder cancer cells; 8 h in the dark, blue light 458 nm 10 min, then dark up to 72 h, read-out: GI50 T24 Blue): 28.9 µM and 26.9 µM; SI (vs NIH-3T3) T24 Blue (T24 bladder cancer cells; blue light 458 nm): >3.7; SI (vs NIH-3T3) T24 Dark (T24 bladder cancer cells; dark): >3.8; Photosensitizing index (PI) T24 (T24 bladder cancer cells; dark vs blue light 458 nm): 1.0; GI50 (T24 bladder cancer cells; in the dark, 72 h, read-out: GI50 T24 Dark): 26.3 µM
2 | F[P-](F)(F)(F)(F)F.O=C(NCCCn1cc[n+]2[c]1[Ir-3]13([c]4ccccc4-c4cccc[n+]41)([c]1ccccc1-c1cccc[n+]13)[n+]1ccccc1-2)[c-]1cccc1.[Fe+2].c1cc[cH-]c1 [IV-a] | 0.61 ± 0.07 | 0.04% | 197 ns | around 380 nm | 304 (sh) (25840), 381 (8080) nm (M^−1 · cm^−1) | 6.7 µM | 4.2 | 28.2 µM | 2.8 | 2.4 µM | 9.9 | 1.2 |  |  | 
3 | COC(=O)c1ccc2[c](c1)[Ir-3]13([c]4cc(C(=O)OC)ccc4-c4cccc[n+]41)([c]1n(CCCNC(=O)[c-]4cccc4)cc[n+]1-c1cccc[n+]13)[n+]1ccccc1-2.F[P-](F)(F)(F)(F)F.[Fe+2].c1cc[cH-]c1 [IV-c] |  | 0.04% | 195 ns |  | 304 (sh) (28570), 353 (sh) (7050), 399 (5315), 427 (sh) (3660) nm (M^−1 · cm^−1) | 9.3 µM | 3.5 |  | 10.7 |  | 2.2 | 16.8 | 0.72 ± 0.03 |  | 
4 | COC(=O)c1ccc2[n+](c1)[Ir-3]13([c]4ccccc4-2)([c]2ccccc2-c2ccc(C(=O)OC)c[n+]21)[c]1n(CCCNC(=O)[c-]2cccc2)cc[n+]1-c1cccc[n+]13.F[P-](F)(F)(F)(F)F.[Fe+2].c1cc[cH-]c1 [IV-e] |  | 0.17% | 200 ns |  | 312 (sh) (27925), 363 (sh) (7290), 434 (6530) nm (M^−1 · cm^−1) | 4.2 µM | 7.7 | 32.3 µM |  | 0.54 µM |  | 18.3 | 1.37 ± 0.05 | 9.9 µM | λem ([3]; CH2Cl2, room temperature, λexc 365 nm or 470 nm): 528 nm
5 | F[P-](F)(F)(F)(F)F.O=C(NCCCn1cc[n+]2[c]1[Ir-3]13([c]4cc(F)cc(F)c4-c4cccc[n+]41)([c]1cc(F)cc(F)c1-c1cccc[n+]13)[n+]1ccccc1-2)[c-]1cccc1.[Fe+2].c1cc[cH-]c1 [IV-l] |  | 0.01% | 191 ns |  | 305 (sh) (21345), 356 (sh) (8645), 412 (3395) nm (M^−1 · cm^−1) |  | 5.4 |  |  |  | 4.8 | 3.2 | 1.14 ± 0.02 |  | 
6 | COC(=O)c1cccc2[c]1[Ir-3]13([c]4c(C(=O)OC)cccc4-c4cccc[n+]41)([c]1n(CCCNC(=O)[c-]4cccc4)cc[n+]1-c1cccc[n+]13)[n+]1ccccc1-2.F[P-](F)(F)(F)(F)F.[Fe+2].c1cc[cH-]c1 [IV-d] | 0.77 ± 0.01 | 0.03% | 228 ns | around 370 nm | 335 (sh) (9725), 372 (6540) nm (M^−1 · cm^−1) |  | 1.9 |  | 12.0 | 1.3 µM | 1.3 | 17.0 |  | 21.6 µM | 
